Measured values taken from patent US4010193A, “Basic ester” (Chinoin Gyogyszer-es Vegyeszeti Termekek Gyara RT, priority 1972, dated 1977).
Counter-ions that a name gives are not always drawn.

Legend:
[1] = tested on: isolated ischiadicus nerves; assay: Local anaesthetic effect on isolated ischiadicus nerves of frogs; conditions: for ED50 (dose reducing by 50% the amplitude of the action-potential): isolated ischiadicus nerves of frogs
Protocol: 4. Local anaesthetical effect The local anaesthetic effect being characteristic of the majority of antiarrhythmical agents is tested on isolated ischiadicus nerves of frogs. The dose reducing by 50% the amplitude of the action-potential induced by stimulation of the nerves is considered as the rate (ED50) of the local anaesthetic effect.

rats = assay: Acute toxicity on rats; format: in vivo; conditions: own investigations
Protocol: (§1) Acute toxicity is measured on rats weighing 150-200 g. The test-compound is injected into the tail wein, within a period of not more, than 5 seconds in a volume of 0.2 ml/100 g. The LD50 -value and the confidentiality limits thereof are evaluated on the basis of the number of animals died within 24 hours. See (J. Pharmacol. Exper. Ther. 96, 89 (1948))

dogs [2] = assay: Toxicity on dogs (own investigations); format: in vivo
dogs [3] = assay: ECG (EKG) disturbances in dogs; format: in vivo; conditions: dose which exhibits a coronary dilatory effect
strophantine arrhythmia = assay: Antagonism of strophantine arrhythmia on dogs; format: in vivo
Protocol: 1. Antagonism of strophantine arrhythmia on dogs
(§2) On dogs anaesthetized with Nembutal (25 mg/kg) (iv.) disturbance of the cardiac rhythm was produced by the slow intravenous infusion of 40 - 80 μg/kg of strophantine, the latter amount depending on the sensibility of the animals. After the appearance of cumulated ventricular extrasystolae the test-compounds are intravenously injected in increasing doses and the arrhythmia antagonizing effect is regarded as positive, if the rhythm disturbance reappears after the cessation of the drug effect. Atrial and ventricular antifibrillatory effect on cats

right atrium = assay: Atrial antifibrillatory effect on cats (atrial fibrillation threshold); format: in vivo
Protocol: as §2
(§3) In cats anaesthetized with an urethane mixture (60/300 mg/kg i.p.) the right atrium and the right ventriculum is irritated through a dipolar silver electrode with 20 Hz rectangular electric stimuli of […]. The threshold intensity (i.e. fibrillation threshold value) just eliciting the fibrillation of the ventriculum is determined. The capacity of the compounds to elevate the fibrillation threshold when administered intravenously is tested. (British J. Pharmacol. 17, 167, 1961).

right ventriculum = assay: Ventricular antifibrillatory effect on cats (ventricular fibrillation threshold); format: in vivo
Protocol: as §2, §3

isolated right atrium = assay: Effect on spontaneous frequency of isolated right atria of rabbits
Protocol: (§4) 3. effect on the electro-physiological characteristics of isolated right and left atria of rabbits
(§5) Rabbits are killed by blows on the napeon; the isolated right atrium which is surviving in a Locke-solution having a temperature of 32° C the spontane frequency and on the isolated left atrium the electric threshold, the velocity of stimulus-transmission and the maximal driving frequency is determined. (Detailed description of the test: see L. Szekeres and Gy. Papp: "Experimental cardiac arrhythmias and antiarrhythmic drugs." Publishing House of the Hungarian Academy of Sciences, Budapest, 1971). Upon the effect of the rising concentrations of the various test compounds, the increase of the electric threshold indicates the reduction of myocardial stimulability and the decrease of the maximal driving frequency indicates the prolongation of the refractory period.

isolated left atrium = assay: Effect on electro-physiological characteristics of isolated left atria of rabbits (electric threshold, velocity of stimulus-transmission, maximal driving frequency)
Protocol: as §4, §5

Acute toxicity on rats = format: in vivo; conditions: rat, in vivo, iv, tail vein injection, deaths within 24 hours, confidence 95 %
Protocol: as §1

COc1cc(C(=O)OCCCNCCC(c2ccccc2)c2ccccc2)cc(OC)c1OC.Cl [3-(3,3-diphenyl-propylamino)-propyl-3,4,5-trimethoxy-benzoate-hydrochloride, reference compound]
wash-out from isolated frog nerve ([1]; isolated frog nerve): cound not be washed out from isolated frog nerve | toxicity relative to the compounds of the Formula I, rats (rats): significantly more toxic than the compounds of the Formula I | toxicity relative to the compounds of the Formula I, dogs (dogs [2]): significantly more toxic than the compounds of the Formula I | ECG (EKG) disturbances (dogs [3]): often caused ECG (EKG) disturbances

COc1cc(C(=O)OCCNC(C)c2ccccc2)cc(OC)c1OC (centres unmarked) [Compound 1, N-2-ethyl-1-phenyl-ethylamino-3,4,5,-trimethoxy-benzoate-hydrochloride]
Period of antagonising strophantine arrhythmia (strophantine arrhythmia; dose 2 mg/kg. i.v.): 213 s | Period of antagonising strophantine arrhythmia (strophantine arrhythmia; dose 4 mg/kg. i.v.): 260 s | Atrial fibrillation threshold, changed value (right atrium; 2 mg/kg iv.): 1.02 mA | Ventricular fibrillation threshold, changed value (right ventriculum; 2 mg/kg iv.): 0.97 mA | Spontaneous frequency/min., changed value (isolated right atrium; 5 mg/l.): 121 min⁻¹ | Spontaneous frequency/min., changed value (isolated right atrium; 10 mg/l.): 115 min⁻¹ | Maximal driving frequency/min, changed value (isolated left atrium; 5 mg./l.): 267 min⁻¹ | Velocity of stimulus-transmission, changed value (isolated left atrium; 5 mg./l.): 0.34 m/sec | Velocity of stimulus-transmission, deviation from basic value (isolated left atrium; 5 mg./l.): -15% | Electric stimulus threshold, changed value (isolated left atrium; 5 mg/l.): 0.32 mA | Maximal driving frequency/min, changed value (isolated left atrium; 10 mg./l.): 280 min⁻¹ | Velocity of stimulus-transmission, changed value (isolated left atrium; 10 mg./l.): 0.43 m/sec | Velocity of stimulus-transmission, deviation from basic value (isolated left atrium; 10 mg./l.): -17% | Electric stimulus threshold, changed value (isolated left atrium; 10 mg/l.): 0.21 mA | ED50 (dose reducing by 50% the amplitude of the action-potential) [1]: 710 µg/mL | LD50 at 24 h (Acute toxicity on rats): 28 mg/kg

COc1cc(C(=O)OCCNC(C)C)cc(OC)c1OC [Compound 2]
Period of antagonising strophantine arrhythmia (strophantine arrhythmia; dose 0,5 mg/kg. i.v.): 145 s | Period of antagonising strophantine arrhythmia (strophantine arrhythmia; dose 1 mg/kg. i.v.): 228 s | Period of antagonising strophantine arrhythmia (strophantine arrhythmia; dose 2 mg/kg. i.v.): 287 s | Atrial fibrillation threshold, changed value (right atrium; 2 mg/kg iv.): 0.66 mA | Atrial fibrillation threshold, changed value (right atrium; 4 mg/kg iv.): 0.90 mA | Atrial fibrillation threshold, changed value (right atrium; 6 mg/kg iv.): 0.89 mA | Ventricular fibrillation threshold, changed value (right ventriculum; 2 mg/kg iv.): 0.82 mA | Ventricular fibrillation threshold, changed value (right ventriculum; 4 mg/kg iv.): 0.99 mA | Ventricular fibrillation threshold, changed value (right ventriculum; 6 mg/kg iv.): 1.46 mA | Spontaneous frequency/min., changed value (isolated right atrium; 5 mg/l.): 134 min⁻¹ | Spontaneous frequency/min., changed value (isolated right atrium; 10 mg/l.): 120 min⁻¹ | Maximal driving frequency/min, changed value (isolated left atrium; 5 mg./l.): 334 min⁻¹ | Velocity of stimulus-transmission, changed value (isolated left atrium; 5 mg./l.): 0.32 m/sec | Velocity of stimulus-transmission, deviation from basic value (isolated left atrium; 5 mg./l.): -18% | Electric stimulus threshold, changed value (isolated left atrium; 5 mg/l.): 0.39 mA | Maximal driving frequency/min, changed value (isolated left atrium; 10 mg./l.): 251 min⁻¹ | Velocity of stimulus-transmission, changed value (isolated left atrium; 10 mg./l.): 0.32 m/sec | Velocity of stimulus-transmission, deviation from basic value (isolated left atrium; 10 mg./l.): -27% | Electric stimulus threshold, changed value (isolated left atrium; 10 mg/l.): 0.62 mA | ED50 (dose reducing by 50% the amplitude of the action-potential) [1]: 570 µg/mL | LD50 at 24 h (Acute toxicity on rats): 57 mg/kg

COc1cc(C(=O)OCCNC2CCCCC2)cc(OC)c1OC [Compound 3, N-2-ethyl-cyclohexylamino-3,4,5-trimethoxy-benzoate-hydrochloride]
Atrial fibrillation threshold, changed value (right atrium; 2 mg/kg iv.): 0.95 mA | Atrial fibrillation threshold, changed value (right atrium; 4 mg/kg iv.): 1.02 mA | Atrial fibrillation threshold, changed value (right atrium; 6 mg/kg iv.): 1.18 mA | Ventricular fibrillation threshold, changed value (right ventriculum; 2 mg/kg iv.): 1.02 mA | Ventricular fibrillation threshold, changed value (right ventriculum; 4 mg/kg iv.): 1.19 mA | Ventricular fibrillation threshold, changed value (right ventriculum; 6 mg/kg iv.): 1.68 mA | Ventricular fibrillation threshold, deviation from basic value (right ventriculum; 6 mg/kg iv.): +121% | Spontaneous frequency/min., changed value (isolated right atrium; 1 mg/l.): 116 min⁻¹ | Spontaneous frequency/min., changed value (isolated right atrium; 5 mg/l.): 136 min⁻¹ | Spontaneous frequency/min., changed value (isolated right atrium; 10 mg/l.): 120 min⁻¹ | Maximal driving frequency/min, changed value (isolated left atrium; 1 mg./l.): 352 min⁻¹ | Velocity of stimulus-transmission, changed value (isolated left atrium; 1 mg./l.): 0.49 m/sec | Electric stimulus threshold, changed value (isolated left atrium; 1 mg/l.): 0.26 mA | Maximal driving frequency/min, changed value (isolated left atrium; 5 mg./l.): 264 min⁻¹ | Velocity of stimulus-transmission, changed value (isolated left atrium; 5 mg./l.): 0.34 m/sec | Velocity of stimulus-transmission, deviation from basic value (isolated left atrium; 5 mg./l.): -40% | Electric stimulus threshold, changed value (isolated left atrium; 5 mg/l.): 0.31 mA | Maximal driving frequency/min, changed value (isolated left atrium; 10 mg./l.): 226 min⁻¹ | Velocity of stimulus-transmission, changed value (isolated left atrium; 10 mg./l.): 0.20 m/sec | Velocity of stimulus-transmission, deviation from basic value (isolated left atrium; 10 mg./l.): -54% | Electric stimulus threshold, changed value (isolated left atrium; 10 mg/l.): 1.71 mA | Electric stimulus threshold, deviation from basic value (isolated left atrium; 10 mg/l., in %): +217 /3/ | ED50 (dose reducing by 50% the amplitude of the action-potential) [1]: 450 µg/mL | LD50 at 24 h (Acute toxicity on rats): 29 mg/kg
